Two compounds from EP0454060B1, “3-(Mercaptoalkyl)-quinazoline-2,4(1H,3H)-diones, processes for their preparation, and pharmaceutical compositions” (priority 1990, dated 1991) can be followed below.

Molecules are shown by their SMILES.

The subject of data set [1] is primären Hühnerembryonalzellen (2 Tage alt). In words: Cell tolerance, microscopic reading. Type of data set: cell-based, Hühner. On the set-up: key: 0̸: Am 5. Tag der mikroskopischen Ablesung keine morphologischen Veränderungen der Zellen.; ++++: Komplette Veränderungen der Zellschicht in Form von Abrundung, Granulierung und Ablösen der Zellen von der Glaswand.; +++: Analoge Veränderungen bei 3/4 des Zellrasens.; ++: Analoge Veränderungen bei 1/2 des Zellrasens.; +: Analoge Veränderungen bei 1/4 des Zellrasens. Particulars: HEZ, reading day 5. An excerpt:
0̸ = Am 5. Tag der mikroskopischen Ablesung keine morphologischen Veränderungen der Zellen. ++++ = Komplette Veränderungen der Zellschicht in Form von Abrundung, Granulierung und Ablösen der Zellen von der Glaswand. +++ = Analoge Veränderungen bei 3/4 des Zellrasens. ++ = Analoge Veränderungen bei 1/2 des Zellrasens. + = Analoge Veränderungen bei 1/4 des Zellrasens.

The next data set relates to Herpes simplex Typ 1. In words: One-step replication cycle on chick embryo cells. The class given is cell-based. Particulars: Beispielreihe 2, HEZ.
Data set [2] deals with Vesicular-stomatitis Indiana. As to the kind of experiment: One-step replication cycle on chick embryo cells. Particulars: Beispielreihe 2, HEZ. Type of data set: cell-based.
The subject of a further data set is Adeno-Virus Typ 4. As to the kind of experiment: Antiviral test in vitro. Type of data set: cell-based.
The subject of data set [3] is Vesicular-stomatitis Indiana. As to the kind of experiment: Plaque reduction test on primary HEZ. Type of data set: cell-based.
Data set [4] concerns Kontaktüberempfindlichkeit vom verzögerten Typ (Effektor-T-Lymphozyten-Aktivität). In words: Percutaneous test for contact hypersensitivity after DNFB immunisation. The class given is in vivo, Meerschweinchen (Albino-Koloniezucht). Particulars: Sensibilisierungsgrad versus control group; 2 mg/kg daily peroral, day +1 to +6; screening values; from 120 stimulatory, below 80 suppressive. An excerpt:
Der Nachweis einer immunregulatorischen Wirksamkeit wurde am Meerschweinchen (Albino-Koloniezucht) und u. a. mit Hilfe folgender Techniken geführt: • Perkutaner Test zum Nachweis einer Kontaktüberempfindlichkeit vom verzögerten Typ (Effektor-T-Lymphozyten-Aktivität), • Takatsy-Test zum Nachweis DNP-spezifischer Serumantikörper (humorale Immunantwort).
Der Nachweis der antiviralen Wirksamkeit erfolgte in vitro an Hühnerembryonalzellen mit Vertretern verschiedener Virusgruppen. 1. Untersuchungen zur immunregulatorischen Wirksamkeit 1.1 Perkutaner Test zum Nachweis einer Kontaktüberempfindlichkeit Die epikutane Applikation von Dinitrofluorbenzol (DNFB) führt beim Meerschweinchen und bei der Maus zur Entwicklung einer verzögerten Überempfindlichkeit, eines Immunstatus, der an die klonale Vermehrung TNP-spezifischer T-Lymphozyten (TDTH-Ly) gebunden ist. Erfolgt nach einer Latenzperiode von mindestens 5 Tagen eine erneute DNFB-Applikation, kommt es zu einer Freisetzung von Lymphokinen durch Reaktion mit den TDTH-Ly dieses Hautbereiches und dadurch zu einer lokal begrenzten Entzündungsreaktion. Sieben Tage nach der Immunisierung mit 1 %igem DNFB wurden die Flanken der Versuchstiere enthaart und durch Aufbringen je eines Tropfens 0,5 %, 0,1 %, 0,05 %, 0,025 % und 0,01 %iger DNFB-Lösung getestet. Die noch positive Konzentration ist dem Grad der Sensibilisierung umgekehrt proportional. Die Testergebnisse ergeben sich aus Stärke und Anzahl der positiven Hautreaktionen, der Stimulierungsindex (SI) aus dem Vergleich der Test- und Kontrolltiere. Die Substanzbehandlung erfolgte peroral. Mittels Schlundsonde wurde eine tägliche Dosis von 2 mg/kg Körpermasse als Suspension in Wasser gegeben. Behandlungsdauer: 1 Tag + 1 (ein Tag nach der Immunisierung) bis +6. Die Kontrolltiere erhielten nur die eingesetzte Lactose. 1.2 Takatsy-Test Nach Immunisierung mit Dinitrofluorbenzol (DNFB) kommt es beim Meerschweinchen auch zur Bildung DNP-spezifischer humoraler Antikörper, die bevorzugt der IgG1-Substanzklasse angehören. 14 Tage nach primärer epikutaner Applikation von DNFB wurde den Versuchstieren Blut durch Herzpunktion entnommen. Die Bestimmung der Antikörperkonzentration erfolgte nach einer von Takatsy beschriebenen Methode (Takatsy, G.: A new method for the preparation of serial dilutions in a quick and accurate way. Kiserletes Orvostudomany 2 (1950) 263 - 396). Als Indikatorzellen wurden TNP-beladene Schaferythrozyten verwendet (Kopplung nach Rittenberg und Pratt; Rittenberg, M. B. and Pratt, K. L.: Antitrinitrophenyl (TNP) plaque assay. Primary response of BALB/c mice to soluble and particulate immunogen. Proc. Soc. exp. Biol. Med., 132 (1969) 575 - 579). 1.3 Ergebnisse Sensibilisierungsgrad (%) und Serumantikörperkonzentration (AK-Titer-Differenz) gegenüber der jeweiligen Kontrollgruppe (Screening-Werte)
Aus den Werten wird deutlich, daß die Verbindungen der allgemeinen Formel I einen gut nachweisbaren Effekt auf die Effektor-T-Lymphozyten-abhängige verzögerte Uberempfindlichkeit haben. Kontaktdermatitis-Werte ab 120 (≙ 20 % Steigerung gegenüber der Kontrolle) bzw. unter 80 werden als Nachweis eines stimulatorischen bzw. suppressorischen Effektes angesehen. Antikörpertiter-Differenzen von >+1 bzw. <-1 verdeutlichen den stimulatorischen bzw. suppressorischen Effekt der Substanzen auf die humorale Immunantwort. 2. Untersuchungen zur immunstimulierenden Wirkung • 2.1 Plaque-Test zum Nachweis von SE-spezifischen IgM- und IgG-PBZ Zur Prüfung immunstimulierender Effekte wurde u. a. auch der Einfluß von Verbindungen der allgemeinen Formel I auf die humorale Immunantwort an Mäusen des Inzuchtstammes CBA und mittels Hämolyse-Plaque-Test (HPT) untersucht. Diese Technik erlaubt die quantitative und getrennte Erfassung IgM- und IgG-Antikörper produzierender Zellen (= Plaque bildende Zellen; PBZ). […]

Where [5] appears, read: 125 µmol/l, mean of three experiments.
[6] abbreviates: 125 µmol/l, n.s. = nicht signifikant.
Where [7] appears, read: 250 µmol/l, mean of three experiments.

In the case of `O=c1[nH]c2ccccc2c(=O)n1CCS` [Beispiel 1, 3-(2-Mercaptoethyl)-chinazolin-2,4(1H,3H)-dion], the Zellverträglichkeit in data set [1] (125 µmol/l in maintenance medium) is reported as 0̸; in data set [1] (250 µmol/l in maintenance medium) it was 0̸; in data set [1] (500 µmol/l in maintenance medium), “+”; in data set [1] (1000 µmol/l in maintenance medium), “+++”; in data set [1] (62,5 µmol/l in maintenance medium), 0̸. Further, the “Senkung des Virusertrages im Vergleich zur unbehandelten Kontrolle” value with Herpes simplex Typ 1 (setting [5]) is 0,33 log10 TCID50/0,2 ml; in the data set with Herpes simplex Typ 1 (setting [7]), 1,0 log10 TCID50/0,2 ml; in data set [2] (setting [5]) it was 0,5 log10 TCID50/0,2 ml; in data set [2] (setting [7]) it was 3,0 log10 TCID50/0,2 ml. Also, the “% Hemmung” value is on record as “n. s” in the data set on Herpes simplex Typ 1 (setting [6]), 99% in the data set with Herpes simplex Typ 1 (setting [7]), “n. s” in data set [2] (setting [6]) and 99,9% in data set [2] (setting [7]). Further, the “antivirale Wirkung” value in the data set with Adeno-Virus Typ 4 is listed as “nicht antiviral wirksam”. Also, the “Plaquereduktion in % zur Viruskontrolle auf primären HEZ” value is recorded as 15% in data set [3] (125 µmol/l, mean of two experiments); 45 ^x % in data set [3] (250 µmol/l, footnote x = keine signifikante Wirkung); 0% in data set [3] (62,5 µmol/l, mean of two experiments, 62.5 µM).
`COc1cc2[nH]c(=O)n(CCCS)c(=O)c2cc1OC` [Beispiel 2, 3-(3-Mercaptoprop-1-yl)-6,7-dimethoxychinazolin-2,4(1H,3H)-dion]: the “Kontaktdermatitis (Kontrolle: 100) 24-Stunden-Reaktion” value in data set [4] came out at 180%.
